Values quoted from earlier work, collected in patent US20110224245A1, “Treatment Of Neurological Disorders Using Huperzine” (President and Fellows of Harvard College, priority 2008, published 2011).

System: 6 Hz seizures
Settings: established antiepileptic drugs; cited from earlier work
For `NC(=O)N1c2ccccc2C=Cc2ccccc21` [carbamazepine], the “efficacy in the 6 Hz psychomotor seizure model” value (shortened to “efficacy”) is given as “limited efficacy”.
In the case of `Nc1nnc(-c2cccc(Cl)c2Cl)c(N)n1` [lamotrigine], the “efficacy” value is given as “limited efficacy”.
For `O=C1NC(=O)C(c2ccccc2)(c2ccccc2)N1` [phenyloin], the “efficacy” value is given as “limited efficacy”.
In the case of `CC1(C)O[C@@H]2[C@@H](CO[C@@]3(COS(N)(=O)=O)OC(C)(C)O[C@@H]23)O1` [topiramate], the “efficacy” value is given as “limited efficacy”.
